# Results taken from PubChem BioAssay AID1189 (EPA DSSTox, 2008).
# Active and inactive are the calls of the source.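 The calls were made as follows: active = a tumor-causing dose value with its tumor site reported for any sex and species group of a rodent or other animal cancer study; inconclusive = only studies judged inadequate by the national testing program; inactive = tested in at least one study, none positive.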
# Assay: DSSTox (CPDBAS) Carcinogenic Potency Database Summary SingleCellCall Results
# Conditions: animal chronic carcinogenicity bioassays, CPDB summary call
# Method in brief: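 Categorical carcinogenicity call compiled from published chronic rodent and other animal cancer bioassays; based on the most positive result across experiments for each sex-species, assigned on minimal evidence for or against activity.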
row,SMILES,outcome
1,Cc1cc(C)c(N=Nc2c(O)c(S(=O)(=O)O)cc3cc(S(=O)(=O)O)ccc23)cc1C,active; inactive
2,CC(O)CN(CC(O)CO)N=O (stereo not given),active
3,C=CC(O)c1ccc(OC)cc1 (stereo not given),active
4,[N]=O,inactive
5,Nc1nc(-c2ccc([N+](=O)[O-])o2)cs1,active
6,CC1=C[C@H]2O[C@@H]3[C@H](O)[C@@H](O)[C@@](C)(C34CO4)[C@@]2(CO)[C@H](O)C1=O (stereo not given in full),inactive; active
7,O=S(=O)(O)c1ccc(N=Nc2cc(S(=O)(=O)O)c3ccccc3c2O)c2ccccc12,inactive; active
8,OC(O)C(Cl)(Cl)Cl,active; inactive
9,O=CNNc1nc(-c2ccco2)cs1,inactive
10,CN1[C@@H]2CC(OC(=O)[C@@H](CO)c3ccccc3)C[C@H]1[C@@H]1O[C@@H]12 (stereo not given in full),inactive
11,CCCN=[N+]([O-])CCC,active
12,O=C(O)c1cc(N=Nc2ccc(S(=O)(=O)Nc3ccccn3)cc2)ccc1O,active
13,CCOC(=O)/C=C\C(=O)OCC,inactive; active
14,Cc1ccc2ncccc2c1,inactive
15,C1CNCCN1,inactive
16,COc1ccc(OC)c(/C=C/c2ccc(N)cc2)c1,active
17,c1cc(OCC2CO2)cc(OCC2CO2)c1 (stereo not given),active
18,Nc1ccc(-c2ccc(F)cc2)cc1,active
19,[Cl-].[Cl-].[Sn+2],inactive
20,O=CCCCC=O,inactive; active
21,CC(=O)N(C(C)=O)c1cccc2c1Cc1ccccc1-2,active
22,O=c1c(CO)c/c(=N/Nc2ccc(S(=O)(=O)O)c3ccccc23)c(=O)/c1=N/Nc1ccc(S(=O)(=O)O)c2ccccc12,inactive
23,CN=C(N)N,inactive; active
24,CN(C)c1ccc(N=Nc2ccccc2)cc1,active
25,Cc1noc(NS(=O)(=O)c2ccc(N)cc2)c1C,inactive
26,Cc1csc(NNC=O)n1,active

row,SMILES,outcome
1,NC(=S)Nc1ccccc1,inactive
2,Nc1nnc(-c2ccc([N+](=O)[O-])o2)s1,active
3,Cc1ccc(N=Nc2c(O)c(S(=O)(=O)O)cc3ccc(S(=O)(=O)O)cc23)c(C)c1,active; inactive
4,CN1C2CC[C@@H]1CC(NC(=O)c1cc(Cl)cc3c1OC(C)(C)C3)C2 (stereo not given in full),inactive
5,CC(I)C1OCC(CO)O1 (stereo not given),active
6,Clc1c(Cl)c(Cl)c(Cl)c(Cl)c1Cl,active; inactive
7,OC[C@@H](O)[C@H]1O[C@@H]2O[C@H](C(Cl)(Cl)Cl)O[C@@H]2[C@H]1O,inactive
8,Nc1cc(Cl)c(N)c(Cl)c1,active; inactive
9,CCC(C(=O)NC(N)=O)c1ccccc1 (stereo not given),inactive
10,Cc1cccc(Nc2cc(Cl)nc(SCC(=O)O)n2)c1C,active; inactive
11,C=CF,active; inactive
12,COP(=S)(OC)Oc1ccc([N+](=O)[O-])cc1,inactive
13,CN(C)c1ccc(C(=C2C=CC(=[N+](C)C)C=C2)c2ccc(N(C)C)cc2)cc1,active; inactive
14,c1ccc(C2CO2)cc1 (stereo not given),active
15,Nc1c(Cl)c(Cl)nc(C(=O)O)c1Cl,inactive
16,CCOC(=O)C1OC1(C)c1ccccc1 (stereo not given),inactive
17,Cc1ccc(N=Nc2c(O)ccc3ccccc23)c([N+](=O)[O-])c1,active
18,CN1C(=O)C(O)N=C(c2ccccc2)c2cc(Cl)ccc21 (stereo not given),inactive
19,Nc1ccc([N+](=O)[O-])cc1N,inactive; active
20,CCCCN(CCCC)C(=S)[S-].CCCCN(CCCC)C(=S)[S-].[Ni+2],inactive; active
21,NC(=O)Cc1c([O-])on[n+]1Cc1ccccc1,active; inactive
22,O=CCBr,inactive; active
23,C=CC(O)c1ccc2c(c1)OCO2 (stereo not given),active
24,C=CC=C,active; inactive
25,c1ccc(NNc2ccccc2)cc1,active
26,NC(=O)N(CC(=O)O)N=O,active; inactive

row,SMILES,outcome
1,CCN(CC)C(=O)Nc1ccc(OCC(O)CNC(C)(C)C)c(C(C)=O)c1 (stereo not given),inactive; active
2,O=Nc1ccc(NO)cc1,active
3,CCCC[C@H](C)[C@@H](OC(=O)C[C@H](CC(=O)O)C(=O)O)[C@@H](C[C@H](C)C[C@@H](O)CCCC[C@@H](O)C[C@H](O)[C@H](C)N)OC(=O)C[C@H](CC(=O)O)C(=O)O,active; inactive
4,NC(=O)N/N=C/c1ccco1,inactive
5,NC(=O)CCCCn1ccc(NC(N)=NCC(F)(F)F)n1,active; inactive
6,O=S(=O)(O)c1cc(S(=O)(=O)O)c2c(N=Nc3ccc(S(=O)(=O)O)c4ccccc34)c(O)ccc2c1,active; inactive
7,CCOP(=O)(CC1CO1)OCC (stereo not given),inactive
8,CC[C@H](C)C(=O)O[C@H]1C[C@@H](C)C=C2C=C[C@H](C)[C@H](CC[C@@H]3C[C@@H](O)CC(=O)O3)[C@H]21,active; inactive
9,O=C1OC(O)C(C(Cl)Cl)=C1Cl (stereo not given),active
10,O=[N+]([O-])c1cc([N+](=O)[O-])c(Cl)c(Cl)c1Cl,inactive
11,ClC(Cl)(Cl)c1ccccc1,active; inactive
12,c1ccc(N=Nc2ccccc2)cc1,active
13,Nc1nc(N)nc(N)n1,active
14,CCCCCCc1ccc(O)cc1O,inactive
15,[Cl-].[Hg+],inactive; active
16,COC(=O)C1=C(C)NC(C)=C(C(=O)OCC(C)(C)CN(C)Cc2ccccc2)C1c1cc([N+](=O)[O-])ccc1F (stereo not given),inactive
17,CCc1nc(N)nc(N)c1-c1ccc(Cl)cc1,inactive
18,c1ccc2cc(Nc3ccc(Nc4ccc5ccccc5c4)cc3)ccc2c1,inactive; active
19,CC(N)=O,active; inactive
20,Cn1nc(CO)nc1NCCCOc1cccc(CN2CCCCC2)c1,active
21,O=[Se]=O,inactive
22,CC(C)(CCCOc1ccc(OCCCC(C)(C)C(=O)O)c(-c2ccccc2)c1)C(=O)O,active
23,NC(=O)CCCCC(N)=O,inactive; active
24,CC(O)CCl (stereo not given),inactive; active
25,O=C1NC(=O)C(c2ccccc2)(c2ccccc2)N1,active
26,O=[N+]([O-])c1ccc2nc[nH]c2c1,active

row,SMILES,outcome
1,O=[N+]([O-])c1cccc2cccnc12,active; inactive
2,O=NN1CCOC(O)C1 (stereo not given),inactive; active
3,Clc1ccc(Cl)cc1,active
4,O=C/C(Cl)=C(/Cl)C(=O)O,inactive
5,COc1ccc2c(c1)c(CC(=O)O)c(C)n2C(=O)c1ccc(Cl)cc1,active; inactive
6,Nc1ccc(N=Nc2ccc(N)cc2)cc1,inactive; active
7,CC(C)(C)c1cc([N+](=O)[O-])cc([N+](=O)[O-])c1OS(C)(=O)=O,inactive
8,O=C(N[C@H](CO)[C@H](O)c1ccc([N+](=O)[O-])cc1)C(Cl)Cl,inactive
9,N[C@@H](CC(=O)O)C(=O)O,inactive; active
10,COc1cc(CNC(=O)CCCC/C=C/C(C)C)ccc1O,active
11,ClC#CCl,active
12,CCOC(=O)C(O)(c1ccc(Cl)cc1)c1ccc(Cl)cc1,active
13,COc1cc2c(c3oc4cccc(O)c4c(=O)c13)C1C=COC1O2 (stereo not given),active; inactive
14,COc1ccc(C(=O)Nc2c(Cl)cncc2Cl)cc1OC1CCCC1,active
15,[O]=[Cr][O][Cr]=[O],inactive
16,O[C@@H]([C@H](O)[C@@H](O)CBr)[C@@H](O)CBr,active
17,O=Cc1ccco1,active; inactive
18,COc1ccc(O)c(C(C)(C)C)c1,active; inactive
19,O=[N+]([O-])c1ccc2ccc3cccc4ccc1c2c34,active
20,CCO,active
21,CCCCCC(N)=O,active
22,O=C(O)CN(CCN(CC(=O)O)CC(=O)O)CC(=O)O,inactive
23,NC(=O)CI,inactive; active
24,CC(C(O)c1ccccc1)N(C)N=O (stereo not given),active
25,CC(=O)Nc1nc(-c2ccc([N+](=O)[O-])o2)cs1,active
26,CN=C(NC#N)NCCSCc1nc[nH]c1C,inactive; active

row,SMILES,outcome
1,O=C1OC(=O)c2ccccc21,inactive
2,OCCBr,active; inactive
3,NC(=O)N(CCCO)N=O,active; inactive
4,CC(=O)C(N=Nc1ccc(Cl)cc1Cl)C(=O)Nc1ccc(-c2ccc(NC(=O)C(N=Nc3ccc(Cl)cc3Cl)C(C)=O)c(C)c2)cc1C (stereo not given),inactive
5,CCCN(CCC)S(=O)(=O)c1ccc(C(=O)O)cc1,active
6,CC(C)=CCl,active
7,Cc1cc2c(nc1N)[nH]c1ccccc12,active
8,CN(CCCO)N=O,active; inactive
9,CC(C)=CCC/C(C)=C/C=O,inactive
10,Cn1c(N)nc2ncc(-c3ccccc3)cc21,active
11,S=C=NCc1ccccc1,inactive
12,Cc1ccc(N)cc1Cl,inactive; active
13,CNNCc1ccc(C(=O)NC(C)C)cc1,active
14,COc1ccc(N)cc1N,active
15,O=P1(NCCCl)OCCCN1CCCl (stereo not given),active; inactive
16,c1ccc2c(c1)[nH]c1ccccc12,active
17,CCOC(=O)[C@]1(c2ccccc2)CCC=C[C@H]1N(C)C,inactive
18,C=CCOc1ccc(CC(=O)O)cc1Cl,inactive
19,CN(N)C=O,active
20,O=P(O)(O)O,inactive; active
21,c1ccc2[nH]ccc2c1,inactive
22,ClCC1CO1 (stereo not given),active
23,O=CCCl,active
24,C=CC(=O)c1ccc2c(c1)OCO2,inactive
25,CC(O)CN(CC(C)O)CC(C)O (stereo not given),inactive; active
26,CC(=O)Nc1ccc(S(=O)(=O)O)c2cc(S(=O)(=O)O)c(N=Nc3ccc(N=Nc4ccc(S(=O)(=O)O)cc4)c4ccc(S(=O)(=O)O)cc34)c(O)c12,inactive; active
